# Laboratory results taken from article PMC6240096, “A hPSC-based platform to discover gene-environment interactions that impact human β-cell and dopamine neuron survival” (Nature Communications, 2018).
# pIC50: −log10 of the molar value.
# Assays:
# primary human islets = test: Primary human islets, INS and propidium iodide staining; format: cell-based; conditions: 2 mM GSH
# Text: Fig. 1 A high-content screen identifies propargite as a compound that induces pancreatic β-cell death. a Scheme of pancreatic β-cell differentiation and high-content chemical screen. b Chemical structure of two hit compounds: Propargite and Vacor. c Inhibitory curve and IC50 of propargite or Vacor on INS^+ and INS^− cells (n = 8). d, e Immunocytochemistry analysis (d) and survival rate (e) of H1-derived glucose-responding INS^+ and INS^− cells treated with different doses of propargite (n = 8). Pancreatic β-like cells were stained for INS (green) and all cells were counterstained by DAPI (blue). Scale bars, 100 μm. The survival rate was calculated by dividing the average number of cells in propargite-treated conditions by the average number of cells in the DMSO control. f, g Representative live images (f) and fold-change (g) of INS^w/GFP HES3-derived INS-GFP^+ cells treated with 1.6 μM propargite or DMSO control at different time points compared to initial time 0 (n = 3). Scale bars, 100 μm. h, i, j Representative images (h) and cell survival rate (i) or cell death rate (j) of DMSO or propargite-treated human primary islets (n = 3). Pancreatic β-cells were stained with the INS antibody (green) and dead cells were stained with propidium iodide (PI) (red). Scale bars, 200 μm. Scale bars for higher resolution (Zoom) images, […]. Pancreatic β-cell death rate was calculated by defining percentages of INS^+ PI^+ cells in INS^+ cells, and non-β-cell death rate was calculated by percentages of INS^−PI^+ cells in INS^− cells.
# MIN6 cells = test: Western blotting of γ-H2A.X and extracellular HMGB1 in MIN6 cells; format: cell-based, mouse; conditions: 2 mM GSH, day 4
# Text: To extract intracellular protein, cells were placed on ice, washed twice with ice-cold PBS and lysed immediately with RIPA buffer (Life Technologies, 89900) supplemented with a protease inhibitor cocktail (Life Technologies, 78440). Cell lysates were then sonicated and the soluble fraction was collected after centrifugation. Protein amount was quantified by the BCA protein assay (Life Technologies, 23227). To extract extracellular HMGB1, tissue culture media were collected and concentrated using Afyon SDS-PAGE sample preparation kit (advansta, K-02101-025). 20 μg of total protein for each sample was mixed with loading buffer and incubated for 5 min at 95 °C before being loaded into NuPAGE® Novex® 4–12% […] Protein Gels (Life Technologies, NP0321BOX) for electrophoresis. Separated proteins were transferred to a PVDF membrane (Millipore, IPSN07852) after electrophoresis. The membrane was blocked with 5% non-fat milk in TBST (50 mM Tris–HCl at pH 8.0, 150 mM NaCl, 0.1% Tween 20) followed by overnight incubation with the primary antibody at 4 °C. The following antibodies were used with the dilution ratio noted: rabbit anti-HMGB1 (1:1000, Cell Signaling Technology, #6893), rabbit anti-γ-H2A.X (1:1000, Cell Signaling Technology, #9718), rabbit anti-LC3B (1:1000, Cell Signaling Technology, #3868), mouse anti-GSTT1 (1:1000, GeneTex, GTX109250), rabbit anti-GSTM1 (1:1000, R&D system, MAB6894), mouse anti-GAPDH (1:50000, Abcam, ab8245). A peroxidase conjugated horse anti-mouse IgG secondary antibody (1:20000, Vector Laboratories, PI-2000) or peroxidase conjugated goat anti-Rabbit IgG secondary antibody (1:20000, Vector Laboratories, PI-1000) was used for western blot. ECL signals were developed and detected using the SuperSignal™ West Femto Maximum Sensitivity Substrate (Life Technologies, 34094) and a C-DiGit Chemiluminescent Western Blot Scanner (LI-COR). Uncropped scans of all the blots were shown in Supplementary Fig. 7 in the Supplementary Information.
# INS+ cells = test: High-content survival / inhibitory curve, hESC-derived INS+ cells; format: cell-based, human
# Protocol: (§1) The screening library ToxCast Phase I was obtained from the US Environmental Protection Agency, which contains approximately 2000 compounds dissolved at 20 mM in DMSO. The H1 hESC-derived population was dissociated with Accutase and re-plated onto laminin V-coated 384-well plates at 5000 cells per well. After 16 h incubation, cells were treated with individual compounds from the ToxCast library with four concentrations, including 20 nM, 200 nM, 2 μM, and 20 μM, for each compound. After 4 days, the cells were fixed with 10% formalin and stained with an INS antibody and DAPI, followed by automatic imaging and analysis by ImageXpress^MICRO Automated High-Content Analysis System (Molecular Devices) to count the numbers of INS^+ and INS^− cells. The survival rate was calculated by dividing the numbers of INS^+ cells in compound treated conditions by the average number of INS^+ cells in DMSO-treated conditions. The compounds that induced more than 60% reduction of the survival rate of INS^+ cells and less than 20% of the INS^− cells were chosen as primary hits. Hit compounds were then selected and validated in three additional independent experiments using the same protocol as the primary screening.
# hESCs-derived INS^+ cells, MSCs[43], neurons, and hepatocytes[44] were derived based on the reported protocols and re-plated on 96-well plates with Accutase digestion. Cardiomyocytes (CMs) were differentiated from H9-MYH6: mCherry reporter line, based on the reported protocol. After overnight incubation, cells were treated with DMSO or different doses of hit compounds for 4 days. After fixation, the cells were stained with markers for each cell type. DAPI was used to stain cell nuclei. Plates were analyzed by ImageXpress^MICRO Automated High-Content Analysis System.
# INS- cells = test: High-content survival / inhibitory curve, hESC-derived INS- cells; format: cell-based, human; conditions: Homo sapiens, 96 h; H1 hESC-derived, β-cell differentiation protocol 1, 4 days treatment, n = 8
# Protocol: as §1, with “Hit compounds were then selected and validated in three additional independent experiments using the same protocol as the primary screening.” left out
# hESCs-derived INS^+ cells, MSCs[43], neurons, and hepatocytes[44] were derived based on the reported protocols and re-plated on 96-well plates with Accutase digestion. […] Plates were analyzed by ImageXpress^MICRO Automated High-Content Analysis System.
Compound,rescue of propargite-induced β-cell-specific death in human islets (primary human islets),rescue of propargite-induced DNA damage (γ-H2A.X expression) (MIN6 cells),rescue of propargite-induced necrosis (extracellular HMGB1) (MIN6 cells),rescue of survival rate of INS+ cells after propargite treatment (INS+ cells; 2 mM GSH),pIC50 (INS- cells),"pIC50 (INS+ cells; Homo sapiens, 96 h, read-out: IC50 for INS+ cells)"
"N[C@@H](CCC(=O)N[C@@H](CS)C(=O)NCC(=O)O)C(=O)O [GSH, glutathione, reference compound]",rescued,fully rescued,partially rescued,fully rescued,,
"O=C(NCc1cccnc1)Nc1ccc([N+](=O)[O-])cc1 [Vacor, N-3 pyridylmethyl-N′’-4-nitrophenyl urea]",,,,,4.21,5.31
